Experiment [1] relates to bacteremia. Kind of experiment: monthly incidence of bacteremia in outpatient hemodialysis unit by catheter lock solution. The experiment is classed as in vivo, human patients.
Experiment [2] can be described thus: urokinase use to open occluded or low-flowing tunneled catheters / clotting of catheters in dialysis unit. The experiment is classed as in vivo, human patients. Conditions: satellite outpatient hospital unit, Jan 1998-May 1999.

For heparin, the “incidence of bacteremia, percent of patients in the unit per month” value in experiment [1] (RTC unit, 70 patients, about 60% with tunneled catheters, heparin Jan-Jul 1998, citrate locks Sep 1998-Jul 1999, 47% citrate May-Jul 1999) was found to be 4.6%. Moreover, in experiment [1] (satellite outpatient hospital unit, 20 ESRD patients, Jan 1998-May 1999), the “incidence of bacteremia, all other months” value is “zero”. For the same substance, in experiment [1] (satellite outpatient hospital unit, 20 ESRD patients, Jan 1998-May 1999, one patient in one month), the “incidence of bacteremia, percent of all patients, the one month with a case” value was 5%. Besides, in experiment [2], the “urokinase use” value is “remained low”.

The record behind these values is patent US20050215978A1, “Method of enhancing catheter patency using a citrate salt catheter lock solution” (priority 2001, published 2005).
